Results reported in ChEMBL document CHEMBL1857833, “Screening and optimization of specific chemical series against human African Trypanosomiasis (HAT)”.
Converted amounts (≈) assume the structure as drawn. “And” between values parts separate entries of the source, which are not always exact repeats. Identical values can stand only once.

What was measured:
[1] = DNDI: Cytotoxicity against L929 mouse fibroblasts, CYTO-SP, 24 hour; format: toxicity, cell-based; details: mouse, L929 mouse fibroblasts
Trypanosoma brucei [2] = test: DNDI: Inhibition of Human African Trypanosomiasis, SBRI 427, in vitro; format: functional, organism-based
[3] = DNDI: Lipophilicity measured in Chromatographic hydrophobicity index (CHI) assay, pH 7.4; format: physicochemical; details: buffer
[4] = DNDI: Solubility in phosphate buffered saline at pH7.4 measured by nephelometry at room temperature (NEPH-RT); format: physicochemical; details: pH 7.4
[5] = mouse, microsomes, 1 µM
Description: DNDI: in vitro intrinsic clearance in mouse liver microsomes at a concentration of 1uM

in vitro [6] = details: human
Description: DNDI: half life in human liver microsomes at a concentration of 1uM

in vitro [7] = details: human; remark: listed apart in the source
Description: DNDI: in vitro intrinsic clearance in human liver microsomes at a concentration of 1uM

in vitro [8] = details: mouse
Description: DNDI: half life in mouse liver microsomes at a concentration of 1uM

[9] = DNDI: Cytotoxicity against L929 mouse fibroblasts, 72 hour.; format: toxicity, cell-based; details: mouse, L929 mouse fibroblasts
[10] = DNDI: half life in human liver microsomes at a concentration of 10uM; format: ADME, Microsome
[11] = DNDI: in vitro intrinsic clearance in human liver microsomes at a concentration of 10uM; format: ADME, Microsome
[12] = DNDI: in vitro intrinsic clearance in mouse liver microsomes at a concentration of 10uM; format: ADME, Microsome; details: read-out: CLint in vitro
[13] = DNDI: half life in mouse liver microsomes at a concentration of 10uM; format: ADME, Microsome
Trypanosoma cruzi = test: DNDI: Inhibition of Chagas Disease parasite Trypanosoma cruzi (Tulahuen LacZ, Clone C4), in vitro.; format: functional, organism-based
[14] = DNDI: Cytotoxicity against L-6 rat myoblasts from skeletal muscle cells; format: toxicity, cell-based, L6; details: L-6 rat skeletal muscle myoblasts
[15] = system: Trypanosoma brucei rhodesiense; test: DNDI: Inhibition of Human African Trypanosomiasis (HAT), STIB 900, in vitro; format: functional, organism-based
Leishmania donovani = test: DNDI: Inhibition of formation of Leishmania donovani (strain MHOM/ET/67/L82) axenic amastigotes, in vitro.; format: functional, organism-based
Plasmodium falciparum = test: DNDI: Inhibition of the malaria parasite Plasmodium falciparum, in vitro; format: functional, organism-based; details: K1
[16] = DNDI: Solubility in phosphate buffered saline at pH7.4 measured by optical density (turbidimetry) at room temperature (OD-RT); format: physicochemical; details: pH 7.4
Trypanosoma brucei [17] = test: DNDI: Mean survival time in days (MSD) of mice after intraperitoneal injection of Human African Trypanosomiasis (HAT), EATRO 110, in vivo at 20 mg/kg/day for 4 days.; format: functional, Mus musculus
Trypanosoma brucei [18] = test: DNDI: Inhibition of Human African Trypanosomiasis, Cross 22, in vitro; format: functional, organism-based
[19] = Trypanosoma brucei, SBRI 427, read-out: IC50
[20] = liver microsomes, CLint in vitro

O/N=C(\NC1CCCCC1)c1cccnc1
IC50 at 24 h [1]: 50 µg/mL (≈ 228 µM) | IC50 (Trypanosoma brucei [2]; [19]): > 5 µg/mL | chromatographic logD [3]: 2.82 | solubility kinetic [4]: > 200 µM | CLint in vitro [5]: 12 µL/min/mg | half-life at 1 µM (in vitro [6]; microsomes): 4.62 h | microsomal CLint at 1 µM (in vitro [7]; microsomes): 3 µL/min/mg | half-life at 1 µM (in vitro [8]; microsomes): 1.17 h

CCCCCC(C)NCc1coc(-c2cccc(OC)c2)n1 (configuration not stated)
IC50 at 24 h [1]: 18 µg/mL (≈ 59.5 µM) | IC50 at 72 h [9]: 6.95 µg/mL (≈ 23 µM) | IC50 (Trypanosoma brucei [2]; [19]): 2.26 µg/mL (≈ 7.47 µM) | chromatographic logD [3]: 4.32 | half-life at 10 µM [10]: 2.12 h | CLint in vitro [11]: 23 µL/min/mg | microsomal CLint at 10 µM [12]: 53 µL/min/mg | half-life at 10 µM [13]: 0.9 h

O/N=C(\NC1CCCCC1)c1cc(F)cc(F)c1
IC50 at 24 h [1]: > 50 µg/mL | IC50 (Trypanosoma brucei [2]; [19]): > 5 µg/mL | chromatographic logD [3]: 4.26 | solubility kinetic [4]: > 200 µM | CLint in vitro [5]: 35 µL/min/mg | half-life at 1 µM (in vitro [6]; liver microsomes, t (1 / 2)): 1.02 h | microsomal CLint at 1 µM (in vitro [7]; [20]): 14 µL/min/mg | half-life at 1 µM (in vitro [8]; liver microsomes, t (1 / 2)): 0.417 h

CCCCCC(C)NCc1coc(-c2ccc(C)cc2)n1 (configuration not stated)
IC50 (Trypanosoma cruzi): 15.7 µg/mL (≈ 54.8 µM) | IC50 at 24 h [1]: 17 µg/mL (≈ 59.4 µM) | IC50 [14]: 12.6 µg/mL (≈ 43.9 µM) | IC50 at 72 h [9]: 5.76 µg/mL (≈ 20.1 µM) | IC50 (Trypanosoma brucei [2]; [19]): 1.95 µg/mL (≈ 6.81 µM) | IC50 [15]: 0.582 µg/mL (≈ 2.03 µM) | IC50 (Leishmania donovani): 13.6 µg/mL (≈ 47.6 µM) | chromatographic logD [3]: 4.66 | IC50 (Plasmodium falciparum): 1.83 µg/mL (≈ 6.39 µM) | microsomal CLint at 10 µM [12]: 31 µL/min/mg | half-life at 10 µM [13]: 1.57 h | solubility kinetic [16]: 12.5 µM (≈ 3.58 µg/mL)

CC(C)(C)CN/C(=N\O)c1ccccc1-c1ccccc1
IC50 at 24 h [1]: > 50 µg/mL | IC50 (Trypanosoma brucei [2]; [19]): 2.02 µg/mL (≈ 7.15 µM) | chromatographic logD [3]: 4.67 | solubility kinetic [4]: 50 µM (≈ 14.1 µg/mL) | CLint in vitro [5]: 78 µL/min/mg | half-life at 1 µM (in vitro [6]; liver microsomes, t (1 / 2)): 1.12 h | microsomal CLint at 1 µM (in vitro [7]; [20]): 13 µL/min/mg | half-life at 1 µM (in vitro [8]; liver microsomes, t (1 / 2)): 0.183 h

COC/C(=N/O)c1ccc(OC)cc1
IC50 at 24 h [1]: > 50 µg/mL | IC50 (Trypanosoma brucei [2]; [19]): > 5 µg/mL | chromatographic logD [3]: 1.64 | solubility kinetic [4]: 50 µM (≈ 9.76 µg/mL) | CLint in vitro [5]: 19 µL/min/mg | half-life at 1 µM (in vitro [6]; liver microsomes, t (1 / 2)): 5.25 h | microsomal CLint at 1 µM (in vitro [7]; [20]): 3 µL/min/mg | half-life at 1 µM (in vitro [8]; liver microsomes, t (1 / 2)): 0.733 h

O/N=C(\CNC1CCCCC1)c1ccccc1
IC50 at 24 h [1]: > 50 µg/mL | IC50 (Trypanosoma brucei [2]; [19]): > 5 µg/mL | chromatographic logD [3]: 2.78 | solubility kinetic [4]: 25 µM (≈ 5.81 µg/mL) | CLint in vitro [5]: 55 µL/min/mg | half-life at 1 µM (in vitro [6]; liver microsomes, t (1 / 2)): 2.77 h | microsomal CLint at 1 µM (in vitro [7]; [20]): 5 µL/min/mg | half-life at 1 µM (in vitro [8]; liver microsomes, t (1 / 2)): 0.25 h

CCCCCC(C)NCc1coc(-c2cccc(Cl)c2)n1 (configuration not stated)
IC50 at 24 h [1]: 14 µg/mL (≈ 45.6 µM) | IC50 at 72 h [9]: 7.27 µg/mL (≈ 23.7 µM) | IC50 (Trypanosoma brucei [2]; [19]): 2.08 µg/mL (≈ 6.78 µM) | chromatographic logD [3]: 5.02 | microsomal CLint at 10 µM [12]: 28 µL/min/mg | half-life at 10 µM [13]: 1.72 h | solubility kinetic [16]: 12.5 µM (≈ 3.84 µg/mL)

CCc1ccc(/C(=N/O)NC2CCCCC2)cc1
IC50 (Trypanosoma cruzi): 10.8 µg/mL (≈ 43.7 µM) | IC50 at 24 h [1]: > 50 µg/mL | IC50 [14]: 53.8 µg/mL (≈ 218 µM) | IC50 at 72 h [9]: > 10 µg/mL | IC50 (Trypanosoma brucei [2]; [19]): 0.98 µg/mL (≈ 3.98 µM) | IC50 [15]: 8.75 µg/mL (≈ 35.5 µM) | MSD (Trypanosoma brucei [17]): 4 days | IC50 (Leishmania donovani): 11.3 µg/mL (≈ 45.9 µM) | chromatographic logD [3]: 4.6 | IC50 (Plasmodium falciparum): > 5 µg/mL | solubility kinetic [4]: 50 µM (≈ 12.3 µg/mL) | CLint in vitro [5]: 210 µL/min/mg | half-life at 1 µM (in vitro [8]; liver microsomes, t (1 / 2)): 0.0667 h

O/N=C(\NC1CCCCC1)c1c(F)cccc1F
IC50 at 24 h [1]: > 50 µg/mL | IC50 (Trypanosoma brucei [2]; [19]): > 5 µg/mL | chromatographic logD [3]: 3.67 | solubility kinetic [4]: 50 µM (≈ 12.7 µg/mL) | CLint in vitro [5]: 8 µL/min/mg | half-life at 1 µM (in vitro [6]; microsomes, t (1 / 2)): > 5.83 h | microsomal CLint at 1 µM (in vitro [7]; microsomes, CLint in vitro): < 5 µL/min/mg | half-life at 1 µM (in vitro [8]; microsomes, t (1 / 2)): 1.73 h

CCCCCC(C)NCc1coc(-c2ccc(-c3ccccc3)cc2)n1 (configuration not stated)
IC50 (Trypanosoma cruzi): 6.4 µg/mL (≈ 18.4 µM) | IC50 at 24 h [1]: > 50 µg/mL | IC50 [14]: 6.78 µg/mL (≈ 19.5 µM) | IC50 at 72 h [9]: 1.83 µg/mL (≈ 5.25 µM) | IC50 (Trypanosoma brucei [18]): 0.4 µg/mL (≈ 1.15 µM) | IC50 (Trypanosoma brucei [2]): 0.25 µg/mL and 0.42 µg/mL | IC50 (Trypanosoma brucei [2]; [19]): 0.24 µg/mL (≈ 0.689 µM) | IC50 [15]: 0.321 µg/mL (≈ 0.921 µM) | IC50 (Leishmania donovani): 5 µg/mL (≈ 14.3 µM) | chromatographic logD [3]: 4.94 | IC50 (Plasmodium falciparum): 1.68 µg/mL (≈ 4.82 µM) | half-life at 10 µM [10]: 79.5 h | CLint in vitro [11]: 1 µL/min/mg | microsomal CLint at 10 µM [12]: 5 µL/min/mg | half-life at 10 µM [13]: 9.55 h | solubility kinetic [16]: < 1 µM

O/N=C(\NC1CCCCC1)c1ccc(F)cc1
IC50 at 24 h [1]: > 50 µg/mL | IC50 (Trypanosoma brucei [2]; [19]): 4.92 µg/mL (≈ 20.8 µM) | chromatographic logD [3]: 4.02 | solubility kinetic [4]: > 200 µM | CLint in vitro [5]: 53 µL/min/mg | half-life at 1 µM (in vitro [6]; liver microsomes, t (1 / 2)): 1.2 h | microsomal CLint at 1 µM (in vitro [7]; [20]): 12 µL/min/mg | half-life at 1 µM (in vitro [8]; liver microsomes, t (1 / 2)): 0.267 h
